Source: patent US7872030B2, “Use of 2-[5-(4-fluorophenyl)-3-pyridylmethylaminomethyl]-chromane and its physiologically acceptable salts” (Merck Patent GmbH, priority 2001, dated 2011)

How the values were obtained:
[1] = tested on: Parkinsonian cynomolgus monkey; assay: Adverse effects of chronic l-dopa therapy in MPTP Parkinsonian cynomolgus monkey; format: in vivo; conditions: MPTP monkeys chronically treated with l-dopa
Experimental: Treatment of adverse effects of conventional anti-Parkinsonian drugs as defined above are determined in a modification of the animal model of the Parkinsonian cynomolgus monkey according to P. J. Blanchet et al., Exp. Neurology 1998; 153: 214-222. Monkeys render parkinsonian by repeated injections of 1-methyl-4-phenyl-1,2,3,6-tetrahydropyridine (MPTP). The Parkinsonian monkeys are chronically treated with the standard l-dopa therapy according to P. J. Blanchet et al., Mov. Disord., 1998; 13: 798-802. Longterm treatment with l-dopa induces extrapyramidal motor side effects and psychotic states which are both qualitatively and quantitatively, assessed by the Abnormal Involuntary Movement Scale (P. J. Blanchet et al., Mov. Disord. 1998; 13: 798-802) for different body parts (face, neck, trunk, each limb) and by rating for psychotic states by observing the monkey's attention, reactivity and mobility.

[2] = tested on: Parkinsonian cynomolgus monkey; assay: MPTP Parkinsonian cynomolgus monkey, Laval University Disability Scale; format: in vivo; conditions: MPTP monkeys
Excerpt: A typical animal model for idiopathic Parkinson's disease is the Parkinsonian cynomolgus monkey according to P. J. Blanchet et al., Exp. Neurology 1998; 153: 214-222. Monkeys render parkinsonian by repeated injections of 1-methyl-4-phenyl-1,2,3,6-tetrahydropyridine (MPTP). Parkinsonian symptoms are qualitatively assessed by the use of the Laval University Disability Scale (B. Gomez-Mancilla et al., 1993; Mov. Disord. 8: 144-150) measuring the following symptoms: posture, mobility, climbing, gait, holding food, vocalizing, grooming, social interaction.

[3] = tested on: reserpinized rat or mouse; assay: Reserpinized rat or mouse (akinesia); format: in vivo; conditions: 24 h after reserpine; for distance travelled and time active: activity meters
Experimental: A typical animal model is the reserpinized rat or mouse (e.g. […]. Neural Transm.-Park. Dis. Dement. Sect., 1994; 7: 133-142; M. Gossel et al., J. Neural Transm.-Park. Dis. Dement. Sect., 1995; 10: 27-39; N. R. Hughes et al., Mov. Disord., 1998; 13: 228-233). Reserpine is a potent depleter of monoamines and produces nearly complete akinesia in both species. Prominent 24 h after application, the distance travelled and the time active is nearly zero as measured in conventional activity meters.

[4] = tested on: patients with Huntington's disease; assay: Trial in patients with Huntington's disease; format: in vivo, human; conditions: add on, 2.5 to 20 mg b.i.d., vs placebo
Experimental: A typical trial to establish the effect of the compounds according to the invention on chorea, voluntary motor performance, and functional disability in patients with Huntington's disease encompasses 32 genetically diagnosed patients. […] The dose of blinded medication is titrated over a period of 3 weeks in a range from 2.5 to 20 mg b.i.d. Then the medication is held constant for 1 week. Assessments are performed in the week before and at the last day of the trial. Chorea is scored using the abnormal involuntary movement scale (AIMS, W. Guy, in: ECDEU assessment manual. Rockville Md.: US dept. of health, education and welfare, 1976: 534-537), the unified Huntington's disease rating scale (UHDRS, Huntington study group, 1996, Movement Disord, 11: 136-42), and judgement of video recordings. Voluntary motor performance is assessed using the UHDRS motor scale. Patients and their partners complete a questionnaire regarding functional disability.

[5] = tested on: genetically dystonic hamsters; assay: Mutant dystonic hamster; conditions: in vivo
Excerpt: A typical animal model is the mutant dystonic hamster according to A. Richter and […], Prog. Neurobiol. 1998; 54: 633-677. In this genetically dystonic hamsters, dystonic attacks are provoked by taking the animal from the home cage and placing it on a balance. The dystonic syndrome consists of a sequence of abnormal movements, and the severity of the single symptoms is rated by a scoring system.

[6] = tested on: patients with cervical dystonia (spasmodic torticollis); assay: Double-blind, placebo-controlled study in cervical dystonia (TWSTRS); format: in vivo, human; conditions: 2.5 mg to 20 mg b.i.d.
Pietrain pig = assay: Campus Syndrome in the Pietrain pig (tremor); format: in vivo
Excerpt: (§1) Typical genetic models in mutant animals are the Campus Syndrome in the Pietrain pig according to A. Richter et al. (Exp. Neurology, 1995; 134: 205-213) or the Weaver mutant mouse according to J. R. Simon and B. Ghetti (Mol. Neurobiol., 1994; 9: 183-189). In the Campus Syndrome model, these mutant pigs show a high-frequency tremor when standing and during locomotion, but not while lying at rest. Assessment of tremor is made by accelerometric recording. In the Weaver mutant mouse, degenerative cerebellar atrophy is fould in association with tremor, gait instability, and toppling over the sides after a few steps.

Weaver mutant mouse = Weaver mutant mouse (locomotor activity); conditions: in vivo
Excerpt: as §1

[7] = tested on: oxotremorine-induced tremor; assay: Oxotremorine-induced tremor; conditions: in vivo
Experimental: A typical animal model for drug-induced tremors is the oxotremorine-induced tremor (e.g. H. Hallberg and O. Almgren, Acta Physiol. Scand., 1987; 129: 407-13; J. G. Clement and W. R. Dyck, J. Pharmacol. Meth., 1989; 22: 25-36). Oxotremorine induces tremor which is measured by a rating scale.

[8] = tested on: rats after cardiac arrest; assay: Posthypoxic myoclonus in rats; conditions: rat, in vivo
Experimental: A typical animal model for myoclonus is myoclonus induced by an acute hypoxic episode according to D. D. Truong et al., Mov. Dsiord., 1994; 9: 201-206). In this model of posthypoxic myoclonus, rats undergo a cardiac arrest for 8 minutes and are resuscitated thereafter. Myoclonic jerks occur spontaneously but can be provoked by auditory stimulation, too, worsening over the days following cardiac arrest.

5-HT1A receptor = target: T1, 5-HT1A receptor (Homo sapiens, UniProt P08908); conditions: compared with buspirone (IC50 […] nmol/l)
T1 sequence (P08908 1-422): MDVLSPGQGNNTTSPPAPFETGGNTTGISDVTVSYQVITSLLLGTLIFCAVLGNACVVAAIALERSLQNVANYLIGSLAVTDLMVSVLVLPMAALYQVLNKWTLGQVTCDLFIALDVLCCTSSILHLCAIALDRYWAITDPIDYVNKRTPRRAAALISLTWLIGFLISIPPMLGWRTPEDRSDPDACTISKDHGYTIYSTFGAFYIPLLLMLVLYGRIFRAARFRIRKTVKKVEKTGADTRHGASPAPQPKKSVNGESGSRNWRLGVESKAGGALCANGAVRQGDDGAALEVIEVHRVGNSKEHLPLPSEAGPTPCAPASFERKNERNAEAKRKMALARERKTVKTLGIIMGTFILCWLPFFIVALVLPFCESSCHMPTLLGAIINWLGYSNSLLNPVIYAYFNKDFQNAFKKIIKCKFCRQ

Fc1ccc(-c2cncc(CNCC3CCc4ccccc4O3)c2)cc1 (racemic) [(R/S)-(−/+)-2-[5-(4-fluorophenyl)-3-pyridylmethylaminomethyl]-chromane]
overall choreiform dyskinesias and dystonic dyskinesias (Abnormal Involuntary Movement Scale) [1]: reduced
psychotic states (attention, reactivity, mobility rating) [1]: reduced
parkinsonian symptoms (Laval University Disability Scale) [2]: reduced all the parkinsonian symptoms
total activity [2]: increased total activity
akinesia [3]: dose-dependently reduced akinesia
distance travelled and time active [3]: restored distance travelled and time active to about the level of normal animals
voluntary and involuntary motor performance (AIMS, UHDRS, video) [4]: significant improvement
severity of dystonic symptoms (score) [5]: dose-dependently reduce the severity of dystonic symptoms
TWSTRS scores [6]: significant improvement
tremor when standing and during locomotion (Pietrain pig): reduce disabling tremor
locomotor activity (Weaver mutant mouse): enhance locomotor activity
oxotremorine-induced tremors (rating scale) [7]: inhibit oxotremorine-induced tremors
number of spontaneous and auditory-evoked myoclonic jerks [8]: dose-dependently reduce the number of spontaneous and auditory-evoked myoclonic jerks
agonist potency at the 5-HT1A receptor in contrast to buspirone (5-HT1A receptor): more potent agonists

Fc1ccc(-c2cncc(CNC[C@@H]3CCc4ccccc4O3)c2)cc1 [(S)-(+)-2-[5-(4-fluorophenyl)-3-pyridylmethylaminomethyl]-chromane]
overall choreiform dyskinesias and dystonic dyskinesias (Abnormal Involuntary Movement Scale) [1]: reduced
psychotic states (attention, reactivity, mobility rating) [1]: reduced
parkinsonian symptoms (Laval University Disability Scale) [2]: reduced all the parkinsonian symptoms
total activity [2]: increased total activity
akinesia [3]: dose-dependently reduced akinesia
distance travelled and time active [3]: restored distance travelled and time active to about the level of normal animals
voluntary and involuntary motor performance (AIMS, UHDRS, video) [4]: significant improvement
severity of dystonic symptoms (score) [5]: dose-dependently reduce the severity of dystonic symptoms
TWSTRS scores [6]: significant improvement
tremor when standing and during locomotion (Pietrain pig): reduce disabling tremor
locomotor activity (Weaver mutant mouse): enhance locomotor activity
oxotremorine-induced tremors (rating scale) [7]: inhibit oxotremorine-induced tremors
number of spontaneous and auditory-evoked myoclonic jerks [8]: dose-dependently reduce the number of spontaneous and auditory-evoked myoclonic jerks
agonist potency at the 5-HT1A receptor in contrast to buspirone (5-HT1A receptor): more potent agonists
